Data: article PMC12608155, “Discovery of Potential Antileishmanial Compounds Through Phenotypic Screening of an Alkaloid Library” (Molecules, 2025)
Where two headings read alike, the source gives them in different places.

Experiments:
[1] = Cytotoxicity in RAW 264.7 cells (alamarBlue, 72 h); details: mouse
Protocol: (§1) To this end, we calculated SIs from 16 preselected results from the ex vivo system. With this aim, dose–response curves were performed in duplicate across at least three independent experiments using RAW 264.7 mouse macrophages (as a model of host cells harboring amastigotes) and HepG2 (as a model for assessing systemic toxicity).
(§2) To evaluate the safety of the selected compounds, two cell lines were employed: RAW 264.7 (a mouse macrophage-derived cell line) and HepG2 (a human hepatoma cell line). Furthermore, to determine the intestinal tolerance relevant to potential oral administration, mouse intestinal organoids were prepared.
(§3) RAW 264.7 and HepG2 were routinely cultured under standard conditions. RAW 264.7 cells were maintained in RPMI medium (Gibco) supplemented with, 25 mM HEPES, 24 mM NaHCO3, 2 mM L-glutamine, mixture of antibiotics and 10% FBS. HepG2 cells were cultured in DMEM/F-12 (Gibco) and supplemented 10% of FBS. For cytotoxicity assays, 10,000 cells per well were seeded into 96-well plates and incubated overnight at 37 °C with 5% of CO2. Subsequently, 2-fold serial dilutions of the compounds were added and incubated for 72 h. Cell viability using the alamarBlue™ assay according to the manufacturer’s instructions, and fluorescence was measured with a Varioskan™ LUX microplate reader (ThermoFisher Scientific, Waltham, MA, USA). Non-linear regression analyses were performed using SigmaPlot^TM software (version 10.0) to calculate CC50. Data were obtained from at least three independent experiments performed in duplicate.

[2] = system: L. donovani IRFP intramacrophagic amastigotes; assay: Dose-response assay on ex vivo infected splenic explants (intramacrophagic amastigotes); format: cell-based, Leishmania donovani; details: read-out: EC50 Intramacrophagic Amastigotes
[3] = system: L. donovani IRFP axenic amastigotes; assay: Dose-response assay on axenic amastigotes; format: cell-based, Leishmania donovani
Protocol: The objective of the present study was to identify new antileishmanial drug candidates by screening a commercial library of plant-derived alkaloids using a platform based on axenic amastigotes of L. donovani IRFP—the causative agent of VL—genetically modified to emit infrared fluorescence during their viable stage (hereafter referred to as L. donovani IRFP). To this end, single-dose assays at 10 μM and 1 μM, as well as dose–response assays, were performed. Compounds showing significant activity in the initial screening were subsequently clustered according to chemical structure using the DataWarrior tool, and representative compounds were further evaluated in dose response assays against axenic amastigotes.
Female Balb/c mice aged from 6 to 8 weeks were intraperitoneally inoculated with 1.5 × 10^9 infective L. donovani IRFP metacyclic promastigotes. Between 8 and 12 weeks after infection, mice were humanely euthanised and bone marrow was collected from the femurs and tibias of both hind limbs. The bones were cut at both ends, and prewarmed PBS was flushed through the medullary cavity using a syringe fitted with a 27G needle, to extract the bone marrow cells. The resulting cell suspension was filtered through a 100 µm cell strainer and centrifuged at 2500 rpm for 10 min at room temperature. To obtain free amastigotes, the pelleted cells were resuspended within a 75 mL ventilated flask in amastigote culture medium (15 mM KCl; 136 mM KH2PO4; 10 mM K2HPO4.3H2O; 0.5 mM MgSO4.7 H2O; 24 mM NaHCO3; 22 mM glucose; 1 mM glutamine, 1x RPMI 1640 vitamin mix (Sigma-Aldrich, Merck, Darmstadt, Germany), 10 mM folic acid, […], 1x RPMI amino acid mix (Sigma-Aldrich, Merck, Darmstadt, Germany), […], antibiotic mixture, 25 mM MES, 10% FBS (Gibco, ThermoFisher Scientific, Waltham, MA, USA) and incubated at 37 °C in a humidified atmosphere containing 5% CO2 [46].
The efficacy of the selected compounds was assessed by measuring near-infrared fluorescence (700 nm) using an Odyssey Infrared Imaging System (Li-Cor, Lincoln, NE, USA) following the previously described protocols.

[4] = Tolerance of mouse intestinal organoids (alamarBlue); format: cell-based; details: C57BL/6, mouse, mouse intestinal organoids (from duodenal crypts); 72 h incubation, Figure S4; read-out: CC50 mouse intestinal organoids
Excerpt: (§4) Mouse intestinal organoids were generated following protocols standardized previously. Briefly, to obtain adult intestine stem cells, C57BL/6 mice were humanely euthanized. A section of the duodenum was excised, rinsed in ice-cold PBS, and cut into small pieces for gentle dissociation using Gentle Cell Dissociation Reagent. Tissue fragments enriched in duodenal crypts and little tissue debris were microscopically selected and resuspended in a 1:1 mixture of Geltrex™ and IntestiCult™ Mouse Medium (Gibco, ThermoFisher Scientific, Waltham, MA, USA /Stemcell Technologies^TM, Vancouver, BC, Canada). Aliquots of 50 µL of this suspension were dispensed into the center of each well of a prewarmed 24-well plate to form domes containing organoids, which were then incubated to allow matrix polymerization. Then, […] of IntestiCult™ Mouse Medium was added to each well. The plate was incubated at 37 °C in a humidified atmosphere containing 5% CO2, and the culture medium was refreshed every 48 h. During this period, organoids continued to proliferate, and passaging was performed at a 1:4 ratio every 7–10 days.
(§5) To determine the in vitro tolerance to oral administration of the active compounds, a 384-well assay was adapted from the protocol described by Du and co-workers. Briefly, following medium removal, organoids were collected from the extracellular matrix using the same procedure as for passaging. The resulting pellet was resuspended in 3.2 mL of a 1:1 mixture of Geltrex™ LDEV-Free Reduced Growth Factor Basement Membrane Matrix (without phenol red, Gibco) and IntestiCult™ Mouse Medium. Using a chilled pipette dispenser, 8 µL of the organoid suspension was dispensed into pre-cooled 384-well plates, which were then gently agitated to evenly distribute the matrix. The plates were incubated at 37 °C for 10 min and then, 32 µL of IntestiCult™ Mouse Medium was added to each well. To prevent edge effects, 100 µL of sterile water was added to the perimeter wells. After 3 days of culture, 10 µL per well of the test compounds dissolved in IntestiCult™ Mouse Medium were added. Positive (0.03% H2O2) and negative (0.2% DMSO) controls were included in each assay. After 72 h of incubation, 5 µL of alamarBlue™ HS were added to each well, and fluorescence was measured after 24 h using a Varioskan™ LUX microplate reader. All assays were conducted in triplicate and repeated in at least three independent experiments.

[5] = system: L. donovani IRFP axenic amastigotes; assay: Primary single-concentration screening on axenic amastigotes, growth inhibition at 72 h; format: cell-based, Leishmania donovani; details: axenic amastigotes; for inhibition at 1 µM / inhibition at 10 µM: Leishmania donovani; for inhibition at 1 µM / Growth Inhibition (%) at 72h, 1 µM_Exp1 / Growth Inhibition (%) at 72h, 1 µM_Exp2: 1 µM; for inhibition at 10 µM / Growth Inhibition (%) at 72h, 10 µM_Exp1 / Growth Inhibition (%) at 72h, 10 µM_Exp2: 10 µM
[6] = Cytotoxicity in HepG2 cells (alamarBlue, 72 h); details: human
Protocol: as §1, §2, §3

RAW 264.7 = assay: Cytotoxicity in RAW 264.7 cells (alamarBlue, 72 h); details: read-out: CC50 RAW 264.7; 72 h, alamarBlue
Protocol: as §1, §2, §3

HepG2 = assay: Cytotoxicity in HepG2 cells (alamarBlue, 72 h); details: read-out: CC50 HepG2; 72 h, alamarBlue
Protocol: as §1, §2, §3

[7] = system: axenic amastigotes of L. amazonensis; design: method as in PMID 25029171; details: compared with glucantime; cited from earlier work
Leishmania amazonensis = system: Leishmania amazonensis; design: method as in PMID 25029171; details: cited from earlier work
[8] = system: mouse intestinal organoids; assay: Tolerance of mouse intestinal organoids (alamarBlue); format: cell-based; details: 72 h incubation, Figure S4
Excerpt: as §4, §5

[9] = Leishmania donovani, Splenocyte, primary cultures of infected mouse splenocytes
[10] = experiment 1, 72 h, read-out: Growth Inhibition (%) at 72h, 1 µM_Exp1
[11] = experiment 2, 72 h, read-out: Growth Inhibition (%) at 72h, 1 µM_Exp2
[12] = experiment 1, 72 h, read-out: Growth Inhibition (%) at 72h, 10 µM_Exp1
[13] = experiment 2, 72 h, read-out: Growth Inhibition (%) at 72h, 10 µM_Exp2
[14] = primary cultures of infected mouse splenocytes

SMILES	CC50 at 72 h ([1]; RAW 264.7 macrophage cells) [nM]	EC50 [2, 9] [nM]	IC50 ([3]; Leishmania donovani) [nM]	inhibition at 1 µM [5, 10] [%]	inhibition at 1 µM [5, 11] [%]	inhibition at 10 µM [5, 12] [%]	inhibition at 10 µM [5, 13] [%]	CC50 at 72 h ([6]; HepG2 hepatoma cells) [nM]	CC50 (RAW 264.7) [nM]	EC50 [2, 14] [nM]	IC50 [3] [nM]	Growth Inhibition (%) at 72h, 1 µM_Exp1 ([5]; experiment 1, 72 h) [%]	Growth Inhibition (%) at 72h, 1 µM_Exp2 ([5]; experiment 2, 72 h) [%]	Growth Inhibition (%) at 72h, 10 µM_Exp1 ([5]; experiment 1, 72 h) [%]	Growth Inhibition (%) at 72h, 10 µM_Exp2 ([5]; experiment 2, 72 h) [%]	CC50 (HepG2) [nM]	also measured
COc1cc2c(cc1OC)-c1c(C)c3ccc(OC)c(OC)c3c[n+]1CC2 [Dehydrocorydaline]	> 10000	2680 ± 110	2810 ± 490	19.1	-42.6	81.7	88.3	> 10000	–	–	–	–	–	–	–	–	CC50 at 72 h [4]: > 50000 nM
CCOC1c2c(ccc3c2OCO3)-c2ccc3cc4c(cc3c2N1C)OCO4 (stereo not shown) [Ethoxysanguinarine]	–	–	–	–	–	–	–	–	1620 ± 110	840 ± 30	210 ± 30	100.74	99.44	100.41	100.07	1440 ± 30	–
COc1cc2c[n+](C)c3c4cc5c(cc4ccc3c2cc1OC)OCO5 [Nitidine]	2010 ± 160	650 ± 30	270 ± 10	45	69.6	100	99.7	490 ± 20	–	–	–	–	–	–	–	–	in vitro IC50 values against axenic amastigotes of L. amazonensis [7]: very similar to those of glucantime; antileishmanial effect in vivo (Leishmania amazonensis): moderate
c1c2c(cc3c1OCO3)-c1cc3cc4c(cc3c[n+]1CC2)OCO4 [Pseudocoptisine]	–	–	–	–	–	–	–	–	> 10000	1430 ± 70	810 ± 120	65.54	88.42	97.95	99.04	> 10000	CC50 [8]: > 10000 nM
C[n+]1cc2c3c(ccc2c2ccc4cc5c(cc4c21)OCO5)OCO3 [Sanguinarine]	1840 ± 60	–	190 ± 10	99.7	99.5	100	101	2080 ± 60	–	–	–	–	–	–	–	–	EC50 ([2]; Leishmania donovani, Splenocyte, in Mus musculus): 850 ± 30 nM
CC[C@@H]1[C@H]2CCCCN3[C@H]2[C@H](C[C@H]3[C@@H]2C[C@H](C)C(=O)O2)[C@@H]2[C@H]1OC(=O)[C@H]2C [Tuberostemonine]	–	> 50000	2060 ± 110	63.6	53	102	101	–	–	–	–	–	–	–	–	–	CC50 at 72 h [1]: 50000 ± 5510 nM; CC50 at 72 h [6]: > 40000 nM
